The record followed here is US7160898B2, “Pharmacological treatment for sleep apnea” (Board of Trustees of The University of Illinois, priority 2002, dated 2007).

Entries after “also recorded” stand apart in the source; their conditions may differ.

Holding throughout (format): in vivo, rat (Sprague-Dawley)
Test [1] relates to rat model of spontaneous sleep apnea. Kind of test: Spontaneous sleep apnea in freely moving rats after GR38032F (Example 2). Conditions: 1 mg/kg i.p. The procedure: Adult, male Sprague-Dawley rats (Sasco-King, Wilmington, Mass.; usually 8 per test group; 300 g) were maintained on a 12-hour light (08:00–20:00 hour)/12-hour dark (20:00–08:00 hour) cycle for one week, housed in individual cages and given ad libitum access to food and water. Following the one week of acclimatization, animals were subjected to the following surgical procedures.
Acclimatized animals were anesthetized for the implantation of cortical electrodes for electroencephalogram (EEG) recording and neck muscle electrodes for electromyogram (EMG) recording using a mixture of ketamine (Vedco, Inc., St. Joseph, Mo.; 100 mg/ml) and acetylpromazine (Vedco, Inc., St. Joseph, Mo.; 10 mg/ml; 4:1, volume/volume) at a volume of 1 ml/kg body weight. The surface of the skull was exposed surgically and cleaned with a 20% solution of hydrogen peroxide followed by a solution of 95% isopropyl alcohol. Next, a dental preparation of sodium fluoride (Flura-GEL®, Saslow Dental, Mt. Prospect, Ill.) was applied to harden the skull above the parietal cortex and allowed to remain in place for 5 minutes. The fluoride mixture was then removed from the skull above the parietal cortex. The EEG electrodes consisting of four stainless steel machine screws, having leads attached thereto, were threaded into the skull to rest on the dura over the parietal cortex. A thin layer of Justi® resin cement (Saslow Dental, Mt. Prospect, Ill.) was applied to cover the screw heads (of screws implanted in the skull) and surrounding skull to further promote the adhesion of the implant. EMG electrodes consisting of two ball-shaped wires were inserted into the bilateral neck musculature. All leads (i.e., EEG and EMG leads) were soldered to a miniature connector (39F1401, Newark Electronics, Schaumburg, Ill.). Lastly, the entire assembly was fixed to the skull with dental cement.
After surgery, all animals were allowed to recover for one week before being subjected to another surgery that involved implantation of a radiotelemetry transmitter (TA11-PXT, Data Sciences International, St. Paul, Minn.) for monitoring blood pressure (BP) and heart period (HP), estimated as pulse interval. After the animals were anesthetized (as described above), the hair from the subxiphoid space to the pelvis was removed. The entire area was scrubbed with iodine and rinsed with alcohol and saline. A 4–6 cm midline abdominal incision was made to allow good visualization of the area from the bifurcation of the aorta to the renal arteries. A retractor was used to expose the contents of the abdomen and the intestine was held back using saline moistened gauze sponges. The aorta was dissected from the surrounding fat and connective tissues using sterile cotton applicators. A 3-0 silk suture was placed beneath the aorta and traction was applied to the suture to restrict the blood flow. Then the implant (TA11-PXT) was held by forceps while the aorta was punctured just cranial to the bifurcation using a 21-gauge needle bent at the beveled end. The tip of the catheter was inserted under the needle using the needle as a guide until the thin-walled BP sensor section was within the vessel. […]
Physiological parameters (see below) from each animal were recorded on 2 occasions in random order, with recordings for an individual animal separated for at least 3 days. […]

Test [2] has as its system NREM and REM sleep. Kind of test: Sleep/wake staging by EEG/EMG after GR38032F (Example 2). Conditions: 1 mg/kg i.p. The procedure: (§1) Physiological parameters (see below) from each animal were recorded on 2 occasions in random order, with recordings for an individual animal separated for at least 3 days. Fifteen minutes prior to each recording each animal received a systemic injection (1 ml/kg intraperitoneal bolus injection) of either saline (control) or 1 mg/kg of ondansetron (GR38032F; 1,2,3,9-tetrahydro-9-methyl-3-[(2-methylimidazol-1-yl)methyl]carbazole-4-one, hydrochloride, dihydrate; Glaxo Wellcome, Inc., Research Triangle Park, N.C.). Polygraphic recordings were made from hours 10:00–16:00.
Respiration was recorded by placing each animal, unrestrained, inside a single chamber plethysmograph (PLYUNIR/U; Buxco Electronics, Sharon, Conn.; dimension 6 in.×10 in.×6 in.) ventilated with a bias flow of fresh room air at a rate of 2 L/min. A cable plugged onto the animal's connector and passed through a sealed port was used to carry the bioelectrical activity from the head implant.
Sleep and waking states were assessed using the biparietal EEG and nuchal EMG signals on 10-second epochs as described by Bennington et al. [Sleep, 17:28–36 (1994)]. […] Sleep efficiency was measured as the percentage of total recorded epochs staged as NREM or REM sleep.

The test system of test [3] is normalized minute ventilation. The test can be described thus: Plethysmographic minute ventilation after GR38032F (Example 2). Conditions: 1 mg/kg i.p., 6 recording hours, vs control; hydrochloride, dihydrate. How it is done:
as §1
Respiration was recorded by placing each animal, unrestrained, inside a single chamber plethysmograph (PLYUNIR/U; Buxco Electronics, Sharon, Conn.; dimension 6 in.×10 in.×6 in.) ventilated with a bias flow of fresh room air at a rate of 2 L/min. […]
An accepted physiological animal model [rat; Monti, et al., Pharamcol. […] More specifically, sleep apneas, defined as cessation of respiratory effort for at least 2.5 seconds, were scored for each recording session and were associated with the stage of sleep in which they occurred: NREM or REM sleep. […] The events detected represent central apneas because decreased ventilation associated with obstructed or occluded airways would generate an increased plethysmographic signal, rather than a pause. […]

Turning to `Cc1nccn1CC1CCc2c(c3ccccc3n2C)C1=O.Cl.O.O` (centres unmarked) [GR38032F, 1,2,3,9-tetrahydro-9-methyl-3-[(2-methylimidazol-1-yl)methyl]carbazole-4-one, hydrochloride, dihydrate], the “time for which REM sleep apneas were completely abolished following injection” value in test [1] is reported as “at least 4 hours”. For the same compound, in test [1] (6 hour recording period, p=0.01 2-way ANOVA), the “rate of apneas per hour of REM sleep” value was “significant suppressant effect”. Besides, the “rate of apneas per hour of NREM sleep” value is recorded as “significant suppression of apneas” in test [1] (first 2 hours of recording, paired t-tests p<0.01) and “no significant effect of treatment or time over 6 hours” in test [1] (whole 6 hours of recording, two-way ANOVA vs saline control). For the same compound, the “spontaneous apneas in REM sleep” value in test [1] (first 4 hours of recordings) is given as “no animal exhibited a single spontaneous apnea in REM sleep”. Besides, the “percentage of total recording time spent in REM sleep” value in test [2] (6 hours) is “did not significantly affect REM sleep”. In addition, the “percentage of total recording time spent in NREM sleep” value in test [2] (first 2 hours, p<0.001) is “significant suppression of NREM sleep”. In addition, the “normalized minute ventilation during W, NREM and REM sleep” value in test [3] is given as “significantly larger; also recorded: significant stimulation of ventilation during all behavioral states”.
